Test results taken from patent US9034866B2 (Genentech, Inc., priority 2012, dated 2015).
Read-outs that look alike come from different tables or passages of the source.

Molecular target: nuclear factor-kappa B (NF-kB)-inducing kinase (NIK) (Homo sapiens (Human), UniProt Q99558)
Experiment: NIK Enzyme Inhibition Assay (Transcreener ADP fluorescence polarization)
Assay type: biochemical
Conditions: read-out: NIK ADP-FP (Ki uM)
Description: NIK Enzyme Inhibition Assay: The ability of the nuclear factor-kappa B (NF-kB)-inducing kinase (NIK) to catalyze the hydrolysis of adenosine-5′-triphosphate (ATP) was monitored using the Transcreener ADP (adenosine-5′-diphosphate) assay (BellBrook Labs). Purified NIK (0.2-1 nM) derived from a baculovirus-infected insect cell expression system was incubated with test compounds for 1-3.5 hours in 50 mM 2-[4-(2-hydroxyethyl)piperazin-1-yl]ethanesulfonic acid buffer (pH 7.2) containing 10 mM MgCl2, 2 mM dithiothreitol, 10 uM ATP, 0.01% Triton X-100, 0.1% gamma-globulins from bovine blood, 1% dimethylsulfoxide (DMSO), 12 ug/mL ADP antibody and 4 nM ADP-AlexaFluor® 633 tracer. Reactions were quenched by the addition of 20 mM 2,2′,2″,2′″-(ethane-1,2-diyldinitrilo)tetraacetic acid and 0.01% Brij 35. The tracer bound to the antibody was displaced by the ADP generated during the NIK reaction, which causes a decrease in fluorescence polarization that was measured by laser excitation at 633 nm with a Fluorescence Correlation Spectroscopy Plus reader (Evotec AG).

[1] = purified NIK 0.2-1 nM, 10 uM ATP, Morrison's quadratic equation

nuclear factor-kappa B (NF-kB)-inducing kinase (NIK), sequence (Q99558 whole entry): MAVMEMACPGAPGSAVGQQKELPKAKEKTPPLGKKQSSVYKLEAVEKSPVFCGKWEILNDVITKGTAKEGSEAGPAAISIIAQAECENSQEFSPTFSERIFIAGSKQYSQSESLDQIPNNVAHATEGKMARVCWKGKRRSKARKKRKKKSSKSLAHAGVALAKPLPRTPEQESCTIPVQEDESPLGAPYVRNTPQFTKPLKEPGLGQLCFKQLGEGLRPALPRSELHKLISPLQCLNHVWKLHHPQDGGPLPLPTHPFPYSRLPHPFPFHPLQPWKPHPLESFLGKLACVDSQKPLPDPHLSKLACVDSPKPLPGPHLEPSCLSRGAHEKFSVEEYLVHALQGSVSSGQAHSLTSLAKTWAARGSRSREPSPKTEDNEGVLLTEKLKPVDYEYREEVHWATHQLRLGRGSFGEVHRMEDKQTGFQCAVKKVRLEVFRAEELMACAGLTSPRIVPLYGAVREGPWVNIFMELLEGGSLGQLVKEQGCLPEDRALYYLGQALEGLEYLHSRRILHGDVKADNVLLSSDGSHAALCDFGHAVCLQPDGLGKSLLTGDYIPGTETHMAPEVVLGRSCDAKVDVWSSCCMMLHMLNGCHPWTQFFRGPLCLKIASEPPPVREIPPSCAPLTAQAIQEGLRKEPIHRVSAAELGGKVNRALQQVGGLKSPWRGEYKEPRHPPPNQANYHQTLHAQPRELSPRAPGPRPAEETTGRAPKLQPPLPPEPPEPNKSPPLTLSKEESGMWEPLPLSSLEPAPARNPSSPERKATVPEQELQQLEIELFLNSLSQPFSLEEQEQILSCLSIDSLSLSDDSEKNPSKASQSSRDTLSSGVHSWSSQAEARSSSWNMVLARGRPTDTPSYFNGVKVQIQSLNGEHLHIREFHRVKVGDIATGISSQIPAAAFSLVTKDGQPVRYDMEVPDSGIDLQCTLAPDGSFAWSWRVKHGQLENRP

| Structure (SMILES) | Ki [1] | Ki |
| --- | --- | --- |
| CC(=O)N1CCN(Cc2c(C(N)=O)nc3n2C2CC(C2)c2cc(F)c(C#CC(C)(C)O)cc2-3)CC1 (racemic) | 0.026 µM |  |
| Cc1nc(C(C)(O)C#Cc2cc3c(cc2F)OCCn2cc(C(N)=O)nc2-3)c[nH]1 (racemic) | 2.5 µM |  |
| COCCNCc1c(C(N)=O)nc2n1C1CC(C1)c1cc(F)c(C#CC(C)(C)O)cc1-2 (racemic) | 0.056 µM |  |
| CC(C)(O)C#Cc1cc2c(cc1F)C1CC(C1)n1c-2nc(C(N)=O)c1Cc1ccccc1Cl (racemic) | 0.0021 µM |  |
| CN1CC[C@](O)(C#Cc2ccc3c(c2)-c2nc(C(N)=O)c(C4CN(C(=O)C5CC5)C4)n2C2CC3C2)C1=O (racemic) | > 1.2 µM |  |
| CC(C)(O)C#Cc1cc2c(cc1F)C1CC(C1)c1sc(C(N)=O)cc1-2 (racemic) | 0.11 µM |  |
| Cc1cc([C@](C)(O)C#Cc2ccc3c(n2)-n2cc(C(N)=O)nc2CCO3)no1 (racemic) | 0.21 µM |  |
| CC(O)(C#Cc1cc2c(cc1F)OCCn1cc(C(N)=O)nc1-2)c1cc(CC#N)on1 (racemic) | 0.003 µM |  |
| CC(C)(O)C#Cc1cc2c(cc1F)OCCn1c-2nc(C(N)=O)c1C(=O)NC1CN2CCC1CC2 (racemic) | 0.453 µM |  |
| NC(=O)c1cn2c(n1)-c1cc(C#CC3(O)CCCC3)ccc1OCC2 [Example 1, 9-(1-hydroxy-cyclopentylethynyl)-4,5-di-hydro-6-oxa-1,3a-diaza-benzo[e]azulene-2-carboxylic acid amide] | 0.052 µM |  |
| CC(C)(O)C#Cc1ccc2c(c1)-c1nc(C(N)=O)cn1CCO2 [Example 2, 9-(3-hydroxy-3-methyl-but-1-ynyl)-4,5-dihydro-6-oxa-1,3a-diaza-benzo[e]azu-lene-2-carboxylic acid amide] | 0.319 µM |  |
| CC(C)(O)C#Cc1ccc2c(c1)-c1nc(C(N)=O)sc1CCO2 [Example 3, 9-(3-hydroxy-3-methyl-but-1-ynyl)-4,5-dihydro-6-oxa-3-thia-1-aza-benzo[e]azu-lene-2-carboxylic acid amide] | 0.033 µM |  |
| NC(=O)c1nc2c(s1)CCOc1ccc(C#CC3(O)CCCC3)cc1-2 [Example 4, 9-(1-hydroxy-cyclopentylethynyl)-4,5-di-hydro-6-oxa-3-thia-1-aza-benzo[e]azu-lene-2-carboxylic acid amide] | 0.004 µM |  |
| CC(C)(O)C#Cc1cc2c(cc1F)OCCn1cc(C(N)=O)nc1-2 [Example 5, 8-fluoro-9-(3-hydroxy-3-methyl-but-1-ynyl)-4,5-dihydro-6-oxa-1,3a-diaza-ben-zo[e]azulene-2-carboxylic acid amide] | 0.034 µM |  |
| CC(C)(O)C#Cc1ccc2c(c1)-c1nc(C(N)=O)sc1C(=O)CO2 [Example 9, 9-(3-hydroxy-3-methyl-but-1-ynyl)-4-oxo-4,5-dihydro-6-oxa-3-thia-1-aza-benzo-[e]azulene-2-carboxylic acid amide] | 0.216 µM |  |
| CC(O)(C#Cc1cc2c(cc1F)OCCn1cc(C(N)=O)nc1-2)c1cncnc1 (stereo not drawn) [Example 14, 8-Fluoro-9-(3-hydroxy-3-pyrimidin-5-yl-but-1-ynyl)-4,5-dihydro-6-oxa-1,3a-diaza-benzo[e]azulene-2-carboxylic acid amide] | 0.864 µM |  |
| CC(O)(C#Cc1cc2c(cc1F)OCCn1cc(C(N)=O)nc1-2)c1cnccn1 (stereo not drawn) [Example 15, 8-fluoro-9-(3-hydroxy-3-pyrazin-2-yl-but-1-ynyl)-4,5-dihydro-6-oxa-1,3a-diaza-benzo[e]azulene-2-carboxylic acid amide] | 0.036 µM |  |
| CC(O)(C#Cc1cc2c(cc1F)OCCn1cc(C(N)=O)nc1-2)c1ncccn1 (stereo not drawn) [Example 16, 8-fluoro-9-(3-hydroxy-3-pyrimidin-2-yl-but-1-ynyl)-4,5-dihydro-6-oxa-1,3a-diaza-benzo[e]azulene-2-carboxylic acid amide] | 0.025 µM |  |
| CC(O)(C#Cc1cc2c(cc1F)OCCn1cc(C(N)=O)nc1-2)c1cncnc1 (stereo not drawn) [Example 18, 8-fluoro-9-(3-hydroxy-3-pyrimidin-5-yl-but-1-ynyl)-4,5-dihydro-6-oxa-1,3a-diaza-benzo[e]azulene-2-carboxylic acid amide] |  | > 5 µM |
| CN1CCC(O)(C#Cc2ccc3c(c2)-c2nc(C(N)=O)cn2CCO3)C1 (stereo not drawn) [Example 23, 9-(3-hydroxy-1-methyl-pyrrolidin-3-yl-ethynyl)-4,5-dihydro-6-oxa-1,3a-diaza-benzo[e]azulene-2-carboxylic acid amide] | > 5 µM |  |

Continued, in another order:

| Ki [1] | Structure (SMILES) | Ki |
| --- | --- | --- |
| 0.023 µM | CC(C)(O)C#Cc1ccc2c(c1)-c1nc(C(N)=O)sc1C(CC(N)=O)CO2 (racemic) [Example 49] |  |
| 0.721 µM | CN(C)C(=O)C(C)(O)C#Cc1cc2c(cc1F)OCCn1cc(C(N)=O)nc1-2 (racemic) [Example 51] |  |
| 0.024 µM | CC(O)(C#Cc1cc2c(cc1F)OCCn1cc(C(N)=O)nc1-2)c1ccccn1 (racemic) [Example 54] |  |
| 0.006 µM | CC(C)(O)C#Cc1cc2c(cc1F)OCCn1c-2nc(C(N)=O)c1C(=O)NC1COC1 (racemic) [Example 59] |  |
| 0.105 µM | CC(C)(O)C#Cc1cc2c(cc1F)OCCn1c-2nc(C(N)=O)c1C(=O)NC(C)(C)C#N (racemic) [Example 61] |  |
| > 5 µM | Cc1cccnc1C(C)(O)C#Cc1cc2c(cc1F)OCCn1cc(C(N)=O)nc1-2 (racemic) [Example 62] |  |
| > 5 µM | CC(O)(C#Cc1cc2c(cc1F)OCCn1cc(C(N)=O)nc1-2)C1(C)CC1 (racemic) [Example 64] |  |
| 0.048 µM | CC(C)(O)C#Cc1cc2c(cc1F)OCCn1c-2nc(C(N)=O)c1C(=O)NCCN1CCCC1 (racemic) [Example 67] |  |
| 0.879 µM | CN1CCC(CNC(=O)c2c(C(N)=O)nc3n2CCOc2cc(F)c(C#CC(C)(C)O)cc2-3)C1 (racemic) [Example 68] |  |
| 0.041 µM | COCC1(CNC(=O)c2c(C(N)=O)nc3n2CCOc2cc(F)c(C#CC(C)(C)O)cc2-3)CC1 (racemic) [Example 69] |  |
| 1.2 µM | CC(O)(C#Cc1cc2c(cc1F)OCCn1cc(C(N)=O)nc1-2)c1nc(CC#N)cs1 (racemic) [Example 77] |  |
| 0.155 µM | CC(O)(C#Cc1cc2c(cc1F)OCCn1cc(C(N)=O)nc1-2)C(=O)N1CC(F)(F)C1 (racemic) [Example 156] |  |
| 0.0068 µM | CC(O)(C#Cc1cc2c(cc1F)C1CC(C1)n1cc(C(N)=O)nc1-2)c1ccccn1 (racemic) [Example 160] |  |
| 0.0072 µM | CC(C)(O)C#Cc1cc2c(cc1F)OCCn1c-2nc(C(N)=O)c1C(O)c1cc(F)cc(F)c1 (racemic) [Example 161] |  |
| > 5 µM | CC(C)(O)C#Cc1cc2c(cc1Cl)OCCn1cc(C(N)=O)nc1-2 (racemic) [Example 186] |  |
| 0.19 µM | CC(C)(O)C#Cc1cc2c(cc1F)OCCn1c-2nc(C(N)=O)c1-c1nc(C2CC2)no1 (racemic) [Example 188] |  |
| 0.54 µM | CC(C)(O)C#Cc1ccc2c(c1)-c1nc(C(N)=O)c(C(F)(F)F)n1CCO2 (racemic) [Example 198] |  |
| 0.00077 µM | CC(C)(O)C#Cc1cc2c(cc1F)C1CC(C1)n1c-2nc(C(N)=O)c1-c1nc(-c2cccnc2)n[nH]1 (racemic) [Example 207] |  |
| > 5 µM | Cc1nc(C(C)(O)C#Cc2cc3c(cc2Cl)OCCn2cc(C(N)=O)nc2-3)no1 (racemic) [Example 231] |  |
| 0.23 µM | COCCN(C)Cc1c(C(N)=O)nc2n1C1CC(C1)c1cc(F)c(C#CC(C)(C)O)cc1-2 (racemic) [Example 239] |  |
| 0.096 µM | CN(C)C1COc2ccc(C#CC(C)(C)O)cc2-c2nc(C(N)=O)sc21 (stereo not drawn) [Example 10, 4-dimethylamino-9-(3-hydroxy-3-meth-yl-but-1-ynyl)-4,5-dihydro-6-oxa-3-thia-1-aza-benzo[e]azulene-2-carboxylic acid amide] |  |
| 0.416 µM | CC(C)(O)C#Cc1ccc2c(c1)-c1nc(C(N)=O)sc1C(N1CCOCC1)CO2 (stereo not drawn) [Example 11, 9-(3-hydroxy-3-methyl-but-1-ynyl)-4-morpholin-4-yl-4,5-dihydro-6-oxa-3-thia-1-aza-benzo[e]azulene-2-carboxylic acid amide] |  |
| 0.093 µM | CC(C)(O)C#Cc1ccc2c(c1)-c1nc(C(N)=O)sc1C(O)CO2 (stereo not drawn) [Example 12, 4-hydroxy-9-(3-hydroxy-3-methyl-but-1-ynyl)-4,5-dihydro-6-oxa-3-thia-1-aza-benzo[e]azulene-2-carboxylic acid amide] |  |
| 0.01 µM | NC(=O)c1cn2c(n1)-c1cc(C#CC3(O)CCC3)c(F)cc1OCC2 [Example 17, 8-fluoro-9-(1-hydroxy-cyclobutylethynyl)-4,5-dihydro-6-oxa-1,3a-diaza-benzo[e]azulene-2-carboxylic acid amide] |  |
| > 5 µM | Cc1ncccc1C(C)(O)C#Cc1cc2c(cc1F)OCCn1cc(C(N)=O)nc1-2 (stereo not drawn) [Example 19, 8-fluoro-9-[3-hydroxy-3-(2-methyl-pyri-din-3-yl)-bul-1-ynyl]-4,5-dihydro-6-oxa-1,3a-diaza-benzo[e]azulene-2-carboxy-lic acid amide] |  |
| 0.771 µM | CC(O)(C#Cc1ccc2c(c1)-c1nc(C(N)=O)cn1CCO2)CO (stereo not drawn) [Example 20] |  |
| 0.094 µM | CC(C)(O)C#Cc1ccc2c(c1)-c1nc(C(N)=O)sc1C(C)(O)CO2 (stereo not drawn) [Example 21, 4-hydroxy-9-(3-hydroxy-3-methyl-but-1-ynyl)-4-methyl-4,5-dihydro-6-oxa-3-thia-1-aza-benzo[e]azulene-2-carboxylic acid amide] |  |
| 0.97 µM | CC(C)(O)C#Cc1ccc2c(c1)-c1nc(C(N)=O)sc1C(NC1CCC1)CO2 (stereo not drawn) [Example 22, 4-cyclobutylamino-9-(3-hydroxy-3-meth-yl-but-1-ynyl)-4,5-dihydro-6-oxa-3-thia-1-aza-benzo[e]azulene-2-carboxylic acid amide] |  |
